From publication PMC8129907 (Journal of Bone and Joint Infection, 2021)
Read-outs that look alike come from different tables or passages of the source. Marks after values point to notes of the source that are not given here.

What was measured:
[1] = pig, 500 mg intraosseous, no tourniquet, microdialysis, mean (SD), n = 8; for AUC 0-last: 12 h
Protocol: (§1) Eight female pigs, from the same supplier and raised under the same conditions, were included in the study (Danish Landrace Breed, age 5 months, weight 78–82 kg). The pigs were kept under general anesthesia with a continuous infusion of propofol (450–650 mg/h) and fentanyl (0.5–0.7 mg/h) throughout the entire study period. The arterial pH and body temperature were monitored and kept in the ranges of 7.37–7.52 and 36.4–40.0 ^∘ C, respectively. After the study, the pigs were euthanized using pentobarbital.
An intraosseous cannula (15 mm) was inserted into the medial tibial condyle approximately 10 mm distal to the epiphyseal line; see Fig. 1. Three tibial microdialysis probes were placed in drill holes, one in the adjacent cancellous bone parallel to and at a mean distance of 9 (range 7–10) mm from the intraosseous cannula tip (drill depth 35±1 mm), one in the cortical bone at the anterior–medial margin of the tibial diaphysis (drill depth 14±0.5 mm), and one within the intramedullary canal of the tibial diaphysis. All drill holes were made with a 2 mm drill, which was paused every few seconds to prevent overheating of the bone tissue. Subsequently, a probe was placed in the synovial fluid of the knee joint using a splittable introducer. Finally, a subcutaneous tissue probe was placed lateral to the knee joint. No tourniquet was applied. Correct positions of all the probes and the distance between the intraosseous cannula and the adjacent cancellous bone microdialysis catheter were verified by fluoroscopy.
Due to continuous perfusion of the microdialysis system, a complete equilibrium across the semipermeable membrane will never occur. The concentration in the dialysate will therefore only represent a fraction of the absolute tissue concentration, which is expressed as the relative recovery. Thus, relative recovery must be determined to assess the absolute tissue concentrations. In the present study, all microdialysis probes were individually calibrated in the beginning of the study using the retrodialysis by drug method (Scheller and Kolb, 1991).
In the present study we used CMA 107 precision pumps ( μ -Dialysis AB, Stockholm, Sweden) producing a flow rate of 1 µL/min and CMA 70 probes (membrane lengths 10 and 20 mm, molecular cutoff 20 kDa).
(§2) Afterwards, all probes were individually calibrated by the retrodialysis method by collecting a 60 min sample. […] The first three dialysates were collected at times 40, 80, and 120 min. Thereafter, dialysates were collected at 60 min intervals from times 120 to 720 min, giving a total of 13 samples from each compartment over 12 h. Blood samples were drawn from a central venous catheter at the midpoint of the microdialysis sample intervals. The dialysates were instantly stored at -80 ^∘ C until analysis. Blood samples were stored at 5 ^∘ C for a maximum of 4 h before being centrifuged at 3000 rpm for 10 min. The obtained plasma aliquots were then stored at -80 ^∘ C until analysis.
(§3) Intra-run (total) imprecisions for the assay were ±1.2 µg/mL (2 standard deviations – SD) at 6.6 and ±3.7 µg/mL (2 SD) at 29.1 µg/mL .
Standard pharmacokinetic parameters were determined separately for each compartment in each pig by non-compartmental analysis using Stata (v. 14.1, StataCorp LLC, College Station, TX, USA). The area under the concentration–time curve (AUC 0-last ) was calculated using the trapezoidal rule. The maxima of all the recorded concentrations were defined as peak drug concentration ( Cmax ) and enabled a calculation of the time to Cmax ( Tmax ).

[2] = system: Commonly encountered bacteria in orthopaedic infections; set-up: method as in Rybak, 2006; EUCAST, 2019; settings: range for commonly encountered bacteria in orthopaedic infections; ref Rybak, 2006; EUCAST, 2019; cited from earlier work
[3] = proximal tourniquet applied before intraosseous administration, ref Young et al., 2014, Chin et al., 2018, Rubio-Martinez et al., 2006, cited from earlier work
[4] = Plasma vancomycin concentrations after tibial intraosseous administration; settings: pig, 500 mg intraosseous, no tourniquet, mean (SD), n = 8
Protocol: as §1, §2, §3
Standard pharmacokinetic parameters were determined separately for each compartment in each pig by non-compartmental analysis using Stata (v. 14.1, StataCorp LLC, College Station, TX, USA). The area under the concentration–time curve (AUC 0-last ) was calculated using the trapezoidal rule. The maxima of all the recorded concentrations were defined as peak drug concentration ( Cmax ) and enabled a calculation of the time to Cmax ( Tmax ). Half-life ( T1/2 ) was determined for all compartments except for tibial cortical bone and calculated as ln(2)/ λeq , where λeq is the terminal elimination rate constant estimated by linear regression of the log concentration on time. For AUC 0-last and Cmax , a mixed model for repeated measurements was applied, taking the variance between pigs into account. The model assumptions were tested by visual diagnosis of residuals, fitted values, and estimates of random effects. A correction for degrees of freedom due to small sample size was handled using the Kenward–Roger approximation method. The t test was used to determine relevant pairwise comparisons. A p value <0.05 was considered to be significant. A Spearman test was used to test the correlation between the distance of the intraosseous cannula and the adjacent cancellous bone drill hole with the peak drug concentration. Statistical analyses were also performed using Stata. […] Values below the quantification limit were set to zero.

[5] = intramedullary canal in the tibia
[6] = synovial fluid of the knee joint

In the case of `CN[C@H](CC(C)C)C(=O)N[C@H]1C(=O)N[C@@H](CC(N)=O)C(=O)N[C@H]2C(=O)N[C@H]3C(=O)N[C@H](C(=O)N[C@H](C(=O)O)c4cc(O)cc(O)c4-c4cc3ccc4O)[C@H](O)c3ccc(c(Cl)c3)Oc3cc2cc(c3O[C@@H]2O[C@H](CO)[C@@H](O)[C@H](O)[C@H]2O[C@H]2C[C@](C)(N)[C@H](O)[C@H](C)O2)Oc2ccc(cc2Cl)[C@H]1O` [vancomycin], the “AUC 0-last” value [1, 5] is reported as 1980 (908) ^a min µg/mL, the T1/2 [1, 5] is reported as 339 (332) min and the Tmax [1, 5] is reported as 65 (26) min. For the same compound, the “AUC 0-last” value ([1]; subcutaneous tissue) was 1881 (691) ^a min µg/mL, the T1/2 ([1]; subcutaneous tissue) was 361 (269) min and the Tmax ([1]; subcutaneous tissue) was 70 (19) min. For the same compound, the “AUC 0-last” value [1, 6] was 1565 (758) ^a min µg/mL, the T1/2 [1, 6] was 217 (140) min and the Tmax [1, 6] was 45 (21) min. For the same compound, the T1/2 ([1]; tibial cancellous bone) was 279 (188) min, the Tmax ([1]; tibial cancellous bone) was 111 (94) min and the “vancomycin concentration after 11.5 h (690 min), end concentration” value ([1]; tibial cancellous bone) was 278 (469) µg/mL. The “AUC 0-last” value ([1]; tibial cortical bone) was 326 (331) min µg/mL, the Tmax ([1]; tibial cortical bone) was 405 (278) min and the “planktonic MIC” value [2] was 0.5 to 4 µg/mL. The “systemic vancomycin plasma levels after tourniquet deflation” value ([3]; range) was 1.8 to 6.0 µg/mL, the “increase of plasma levels after tourniquet deflation” value [3] was 4–10 fold and the “systemic vancomycin plasma levels during tourniquet inflation” value [3] was 0.0 to 2.7 µg/mL. For the same compound, the “AUC 0-last” value ([4]; plasma (free concentration, enzyme immunoassay), 12 h) was 3,673 (611) min µg/mL, the “Cmax (peak drug concentration)” value ([4]; plasma (free concentration, enzyme immunoassay)) was 19 (2) µg/mL and the T1/2 ([4]; plasma) was 254 (128) min. For the same compound, the Tmax ([4]; plasma) was 20 (19) min.
